# Data from PubChem BioAssay (NCI).
#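 Dose response: 5 concentrations. Exposure: 48 h. Format: 96-well plates. Endpoint: linear interpolation; highest concentration if not reached. TGI: total growth inhibition.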
# Test system: SNB-19 CNS
# Assay: inhibition of tumour cell growth, NCI panel, 48 h
row,Compound,TGI [µM]
1,CN1CCC(C(O)(c2ccccc2)c2ccc(Br)cc2)CC1 (stereo not drawn),> 100
2,CC(=O)Nc1cccc(N2C(=O)/C(=C\c3cccc(Oc4ccccc4)c3)SC2c2ccccc2)c1 (stereo not drawn),> 100
3,O=c1c(Sc2c(SCSc3cnc4ccccc4c3Sc3c[nH]c4ccccc4c3=O)cnc3ccccc23)c[nH]c2ccccc12,> 100
4,CSc1nc(=O)cnn1C,> 100
5,Nc1ncc2ncn(C3CCC(CO)O3)c2n1 (stereo not drawn),> 100

# Test system: HCT-15 colon
# Assay: inhibition of tumour cell growth, NCI panel, 48 h
row,Compound,TGI [µM]
1,O=NNc1ccc(S(=O)(=O)c2ccc3ccccc3c2)cn1,> 100
2,C[C@@H]1CC[C@H]2[C@H](C)C(OC3O[C@@H]4O[C@@]5(C)CC[C@H]6[C@H](C)CC[C@@H]([C@@H]3C)[C@@]46O5)O[C@@H]3O[C@@]4(C)CC[C@@H]1[C@]32O4 (stereo partly drawn),> 100
3,CN1CCC(C(O)(c2ccccc2)c2ccc(Br)cc2)CC1 (stereo not drawn),> 100
4,CC(=O)Nc1cccc(N2C(=O)/C(=C\c3cccc(Oc4ccccc4)c3)SC2c2ccccc2)c1 (stereo not drawn),> 100
5,O=c1c(Sc2c(SCSc3cnc4ccccc4c3Sc3c[nH]c4ccccc4c3=O)cnc3ccccc23)c[nH]c2ccccc12,> 100
6,CSc1nc(=O)cnn1C,> 100
7,Nc1ncc2ncn(C3CCC(CO)O3)c2n1 (stereo not drawn),> 100

# Test system: COLO 205 colon
# Assay: inhibition of tumour cell growth, NCI panel, 48 h
row,Compound,TGI [µM]
1,O=NNc1ccc(S(=O)(=O)c2ccc3ccccc3c2)cn1,> 100
2,C[C@@H]1CC[C@H]2[C@H](C)C(OC3O[C@@H]4O[C@@]5(C)CC[C@H]6[C@H](C)CC[C@@H]([C@@H]3C)[C@@]46O5)O[C@@H]3O[C@@]4(C)CC[C@@H]1[C@]32O4 (stereo partly drawn),> 100
3,CN1CCC(C(O)(c2ccccc2)c2ccc(Br)cc2)CC1 (stereo not drawn),28.7
4,CC(=O)Nc1cccc(N2C(=O)/C(=C\c3cccc(Oc4ccccc4)c3)SC2c2ccccc2)c1 (stereo not drawn),> 100
5,O=c1c(Sc2c(SCSc3cnc4ccccc4c3Sc3c[nH]c4ccccc4c3=O)cnc3ccccc23)c[nH]c2ccccc12,> 100
6,CSc1nc(=O)cnn1C,> 100
7,Nc1ncc2ncn(C3CCC(CO)O3)c2n1 (stereo not drawn),> 100

# Test system: SF-268 CNS
# Assay: inhibition of tumour cell growth, NCI panel, 48 h
row,Compound,TGI [µM]
1,O=NNc1ccc(S(=O)(=O)c2ccc3ccccc3c2)cn1,> 100
2,C[C@@H]1CC[C@H]2[C@H](C)C(OC3O[C@@H]4O[C@@]5(C)CC[C@H]6[C@H](C)CC[C@@H]([C@@H]3C)[C@@]46O5)O[C@@H]3O[C@@]4(C)CC[C@@H]1[C@]32O4 (stereo partly drawn),> 100
3,CN1CCC(C(O)(c2ccccc2)c2ccc(Br)cc2)CC1 (stereo not drawn),> 100
4,CC(=O)Nc1cccc(N2C(=O)/C(=C\c3cccc(Oc4ccccc4)c3)SC2c2ccccc2)c1 (stereo not drawn),> 100
5,O=c1c(Sc2c(SCSc3cnc4ccccc4c3Sc3c[nH]c4ccccc4c3=O)cnc3ccccc23)c[nH]c2ccccc12,> 100
6,CSc1nc(=O)cnn1C,> 100
7,Nc1ncc2ncn(C3CCC(CO)O3)c2n1 (stereo not drawn),> 100

# Test system: MDA-N
# Assay: inhibition of tumour cell growth, NCI panel, 48 h
row,Compound,TGI [µM]
1,O=NNc1ccc(S(=O)(=O)c2ccc3ccccc3c2)cn1,> 100
2,C[C@@H]1CC[C@H]2[C@H](C)C(OC3O[C@@H]4O[C@@]5(C)CC[C@H]6[C@H](C)CC[C@@H]([C@@H]3C)[C@@]46O5)O[C@@H]3O[C@@]4(C)CC[C@@H]1[C@]32O4 (stereo partly drawn),> 100
3,CN1CCC(C(O)(c2ccccc2)c2ccc(Br)cc2)CC1 (stereo not drawn),28.2
4,CC(=O)Nc1cccc(N2C(=O)/C(=C\c3cccc(Oc4ccccc4)c3)SC2c2ccccc2)c1 (stereo not drawn),> 100
5,O=c1c(Sc2c(SCSc3cnc4ccccc4c3Sc3c[nH]c4ccccc4c3=O)cnc3ccccc23)c[nH]c2ccccc12,> 100
6,CSc1nc(=O)cnn1C,> 100
7,Nc1ncc2ncn(C3CCC(CO)O3)c2n1 (stereo not drawn),> 100

# Test system: ACHN renal
# Assay: inhibition of tumour cell growth, NCI panel, 48 h
row,Compound,TGI [µM]
1,O=NNc1ccc(S(=O)(=O)c2ccc3ccccc3c2)cn1,> 100
2,C[C@@H]1CC[C@H]2[C@H](C)C(OC3O[C@@H]4O[C@@]5(C)CC[C@H]6[C@H](C)CC[C@@H]([C@@H]3C)[C@@]46O5)O[C@@H]3O[C@@]4(C)CC[C@@H]1[C@]32O4 (stereo partly drawn),> 100
3,CN1CCC(C(O)(c2ccccc2)c2ccc(Br)cc2)CC1 (stereo not drawn),> 100
4,CC(=O)Nc1cccc(N2C(=O)/C(=C\c3cccc(Oc4ccccc4)c3)SC2c2ccccc2)c1 (stereo not drawn),> 100
5,O=c1c(Sc2c(SCSc3cnc4ccccc4c3Sc3c[nH]c4ccccc4c3=O)cnc3ccccc23)c[nH]c2ccccc12,> 100
6,CSc1nc(=O)cnn1C,> 100
7,Nc1ncc2ncn(C3CCC(CO)O3)c2n1 (stereo not drawn),> 100

# Test system: MDA-MB-435
# Assay: inhibition of tumour cell growth, NCI panel, 48 h
row,Compound,TGI [µM]
1,C[C@@H]1CC[C@H]2[C@H](C)C(OC3O[C@@H]4O[C@@]5(C)CC[C@H]6[C@H](C)CC[C@@H]([C@@H]3C)[C@@]46O5)O[C@@H]3O[C@@]4(C)CC[C@@H]1[C@]32O4 (stereo partly drawn),> 100
2,CN1CCC(C(O)(c2ccccc2)c2ccc(Br)cc2)CC1 (stereo not drawn),30.7
3,CC(=O)Nc1cccc(N2C(=O)/C(=C\c3cccc(Oc4ccccc4)c3)SC2c2ccccc2)c1 (stereo not drawn),> 100
4,O=c1c(Sc2c(SCSc3cnc4ccccc4c3Sc3c[nH]c4ccccc4c3=O)cnc3ccccc23)c[nH]c2ccccc12,> 100
5,CSc1nc(=O)cnn1C,> 100
6,Nc1ncc2ncn(C3CCC(CO)O3)c2n1 (stereo not drawn),> 100

# Test system: OVCAR-8 ovarian
# Assay: inhibition of tumour cell growth, NCI panel, 48 h
row,Compound,TGI [µM]
1,O=NNc1ccc(S(=O)(=O)c2ccc3ccccc3c2)cn1,> 100
2,C[C@@H]1CC[C@H]2[C@H](C)C(OC3O[C@@H]4O[C@@]5(C)CC[C@H]6[C@H](C)CC[C@@H]([C@@H]3C)[C@@]46O5)O[C@@H]3O[C@@]4(C)CC[C@@H]1[C@]32O4 (stereo partly drawn),> 100
